Reference: the supplement of paper PMC3621838
± gives the standard deviation of the averaged measurements.

System: HEK293 NF-kB-luciferase reporter cells
Assay: NF-kB luciferase reporter activity, robust Z-score vs plate median (robust Z-score (log luminescence)); higher = stronger NF-kB reporter activation
Details: TNF treatment time 8.5 h, transfection time 72 h
Description: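 Primary screen of an Ambion Pre-miR miRNA mimic library (miRBase v8.0, 1.6 pmol/well, 384-well, duplicate) reverse-transfected into HEK293 cells stably expressing a 5x NF-kB firefly luciferase reporter. After 72 h the cells were treated with vehicle or TNF (40 ng/mL) for 8.5 h and luminescence was read (BriteLite). Raw luminescence was log-transformed and converted to a robust Z-score per plate: (x - plate median)/plate MAD. Sequence given is the mature miRNA strand of the double-stranded mimic.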

| Sequence | NF-kB luciferase reporter activity (TNF 0 ng/mL) | NF-kB luciferase reporter activity (TNF 40 ng/mL) |
| --- | --- | --- |
| GUGCCUACUGAGCUGAUAUCAGU | -0.791 ± 0.86 | 0.339 ± 0.13 |
| GUGUCUUUUGCUCUGCAGUCA | 0.568 ± 0.32 | 0.168 ± 0.045 |
| GUGUGUGGAAAUGCUUCUGC | 0.447 ± 0.27 | -1.04 ± 0.03 |
| UAAACGUGGAUGUACUUGCUUU | -0.000139 ± 0.48 | 0.83 ± 0.16 |
| UAACACUGUCUGGUAAAGAUGG | 0.999 ± 0.35 | 1.415 ± 0.012 |
| UAACAGUCUCCAGUCACGGCC | -0.0296 ± 0.44 | -0.939 ± 0.1 |
| UAAGGCACCCUUCUGAGUAGA | -1.29 ± 0.15 | -3.27 ± 0.24 |
| UAAGUGCUUCCAUGUUUGAGUGU | -1.48 ± 0.11 | -0.618 ± 0.12 |
| UAAGUGCUUCCAUGUUUUGGUGA | -1.29 ± 0.15 | -0.801 ± 0.13 |
| UAAUACUGCCGGGUAAUGAUGG | 0.0214 ± 0.44 | 1.06 ± 0.17 |
| UAAUACUGCCUGGUAAUGAUGAC | 0.744 ± 0.84 | 1.37 ± 0.22 |
| UAAUACUGUCUGGUAAAACCGU | -0.175 ± 0.95 | 0.65 ± 0.15 |
| UACAGUAUAGAUGAUGUACUAG | 0.343 ± 0.35 | 0.659 ± 0.17 |
| UACUCAGGAGAGUGGCAAUCACA | 1.06 ± 0.93 | -0.306 ± 0.029 |
| UAGCACCAUCUGAAAUCGGUU | 0.81 ± 0.93 | -2.2 ± 0.16 |
| UAGCAGCGGGAACAGUUCUGCAG | 0.878 ± 0.18 | 0.834 ± 0.021 |
| UAGGCAGUGUCAUUAGCUGAUUG | 2.71 ± 0.93 | -1.42 ± 0.053 |
| UAGGUAGUUUCCUGUUGUUGG | -1.2 ± 0.5 | -0.972 ± 0.18 |
| UAUACAAGGGCAAGCUCUCUGU | -1.38 ± 0.64 | -1.11 ± 0.035 |
| UAUGGCUUUUCAUUCCUAUGUG | -0.314 ± 0.58 | -0.369 ± 0.0092 |
| UAUGUAAUAUGGUCCACAUCUU | -1.06 ± 0.48 | -1.342 ± 0.0044 |
| UAUGUGCCUUUGGACUACAUCG | -0.472 ± 0.26 | -1.23 ± 0.037 |
| UAUGUGGGAUGGUAAACCGCUU | 0.166 ± 0.72 | -1.21 ± 0.026 |
| UCAAGAGCAAUAACGAAAAAUGU | 0.225 ± 0.32 | 1.08 ± 0.015 |
| UCACAGUGAACCGGUCUCUUUC | -1.06 ± 0.48 | 0.0486 ± 0.083 |
| UCACUCCUCUCCUCCCGUCUUCU | 2.53 ± 0.2 | 1.87 ± 0.1 |

| Sequence | NF-kB luciferase reporter activity (TNF 0 ng/mL) | NF-kB luciferase reporter activity (TNF 40 ng/mL) |
| --- | --- | --- |
| UCAGGCUCAGUCCCCUCCCGAU | -0.315 ± 0.14 | -0.227 ± 0.1 |
| UCAGUCUCAUCUGCAAAGAAG | 2.97 ± 0.59 | 1.58 ± 0.083 |
| UCAGUGCAUCACAGAACUUUGU | 0.225 ± 0.32 | 0.0758 ± 0.04 |
| UCAGUGCAUGACAGAACUUGGG | -0.378 ± 0.05 | 0.0929 ± 0.021 |
| UCCAGCAUCAGUGAUUUUGUUGA | 0.425 ± 0.23 | 0.858 ± 0.14 |
| UCCAGCUCCUAUAUGAUGCCUUU | 3.61 ± 0.75 | -0.188 ± 0.11 |
| UCCCUGAGACCCUUUAACCUGUG | 0.417 ± 0.12 | 1.32 ± 0.15 |
| UCCCUGUCCUCCAGGAGCUCA | 0.322 ± 0.46 | 0.69 ± 0.39 |
| UCCGUCUCAGUUACUUUAUAGCC | 0.757 ± 0.51 | 0.334 ± 0.055 |
| UCCUGUACUGAGCUGCCCCGAG | 0.874 ± 0.074 | 1.15 ± 0.17 |
| UCGGGGAUCAUCAUGUCACGAG | 1.13 ± 0.071 | 0.339 ± 0.01 |
| UCGUGCAUCCCUUUAGAGUGUU | 1.73 ± 0.3 | 1.07 ± 0.079 |
| UCUACAAAGGGAAGCCCUUUCUG | -0.631 ± 0.31 | 0.879 ± 0.11 |
| UCUACAGUGCACGUGUCU | -1.16 ± 0.34 | -0.417 ± 0.031 |
| UCUCACACAGAAAUCGCACCCGUC | 0.103 ± 1.2 | 0.598 ± 0.025 |
| UCUCCCAACCCUUGUACCAGUG | 0.0398 ± 0.056 | 1.18 ± 0.046 |
| UCUCUGGAGGGAAGCACUUUCUG | -0.463 ± 0.65 | -0.521 ± 0.11 |
| UCUGCAAAGGGAAGCCCUUU | 0.625 ± 1.3 | 0.788 ± 0.045 |
| UCUGGCUCCGUGUCUUCACUCC | 0.957 ± 0.014 | -1.34 ± 0.046 |
| UCUUGGAGUAGGUCAUUGGGUGG | 1.37 ± 0.57 | 0.913 ± 0.027 |
| UGAAACAUACACGGGAAACCUCUU | 0.49 ± 0.56 | -0.403 ± 0.11 |
| UGAAGGUCUACUGUGUGCCAG | -0.779 ± 1.1 | -1.55 ± 0.32 |
| UGAGAACUGAAUUCCAUAGGCU | -1.29 ± 0.15 | 0.439 ± 0.12 |
| UGAGGUAGGAGGUUGUAUAGU | -0.314 ± 0.58 | -0.881 ± 0.37 |
| UGAUUGGUACGUCUGUGGGUAGA | -0.152 ± 0.091 | -0.9703 ± 0.0044 |
| UGAUUGUAGCCUUUUGGAGUAGA | -1.51 ± 0.46 | -0.927 ± 0.034 |

| Sequence | NF-kB luciferase reporter activity (TNF 0 ng/mL) | NF-kB luciferase reporter activity (TNF 40 ng/mL) |
| --- | --- | --- |
| UGCUGACUCCUAGUCCAGGGC | -1.7 ± 0.2 | -3.27 ± 0.18 |
| UGCUUCCUUUCAGAGGGU | 1.34 ± 0.039 | 0.941 ± 0.075 |
| UGGAGAGAAAGGCAGUUC | 0.465 ± 0.4 | 0.268 ± 0.031 |
| UGGUAGACUAUGGAACGUA | 0.274 ± 0.8 | 0.0556 ± 0.21 |
| UGGUUGACCAUAGAACAUGCGC | -0.133 ± 0.5 | -2.27 ± 0.2 |
| UGGUUUACCGUCCCACAUACAU | -0.822 ± 0.38 | 0.367 ± 0.064 |
| UGUCUGCCCGCAUGCCUGCCUCU | 1.07 ± 0.88 | 0.822 ± 0.046 |
| UGUCUUGCAGGCCGUCAUGCA | 1.79 ± 0.31 | -0.465 ± 0.12 |
| UGUGACAGAUUGAUAACUGAAA | -0.287 ± 0.28 | -2.016 ± 0.016 |
| UGUUUGCAGAGGAAACUGAGAC | 1.44 ± 0.076 | -1.26 ± 0.051 |
| UUAAGACUUGCAGUGAUGUUUAA | -0.92 ± 0.38 | 0.155 ± 0.07 |
| UUAUAAUACAACCUGAUAAGUG | -0.295 ± 1.1 | -0.534 ± 0.029 |
| UUAUCAGAAUCUCCAGGGGUAC | -0.469 ± 0.36 | -0.796 ± 0.17 |
| UUCAAGUAAUUCAGGAUAGGUU | 0.218 ± 0.18 | 0.0275 ± 0.0019 |
| UUCACAGGGAGGUGUCAUUUAU | 0.436 ± 0.13 | 0.0761 ± 0.082 |
| UUCACAGUGGCUAAGUUCCGC | 0.203 ± 0.55 | 0.955 ± 0.096 |
| UUCCCUUUGUCAUCCUUCGCCU | 0.84 ± 0.23 | 0.327 ± 0.09 |
| UUCUCCAAAAGAAAGCACUUUCUG | -0.171 ± 0.24 | -1.816 ± 0.017 |
| UUCUCCAAAAGGGAGCACUUUC | 1.07 ± 0.25 | -1.42 ± 0.11 |
| UUGUACAUGGUAGGCUUUCAUU | 0.596 ± 0.28 | 0.433 ± 0.025 |
| UUUAACAUGGGGGUACCUGCUG | -0.207 ± 0.29 | 0.504 ± 0.055 |
| UUUCAAGCCAGGGGGCGUUUUUC | 0.765 ± 0.45 | 0.885 ± 0.064 |
| UUUGUUCGUUCGGCUCGCGUGA | -0.464 ± 1 | -3.19 ± 0.074 |
| UUUUGCACCUUUUGGAGUGAA | 1.1 ± 0.92 | -0.163 ± 0.01 |
